Experimental data: patent publication US9732067B2, “Compounds and methods for activating the apoptotic arm of the unfolded protein response” (University of Kansas, priority 2012, dated 2017)
Where “and” joins values, the source holds several entries; their conditions need not be identical. Equal entries are not always repeated. Where two headings read alike, the source gives them in different places.

How the values were obtained:
[1] = Aqueous solubility in pION's buffer; type: physicochemical
Text: Solubility was highest at the physiological of pH 7.4.

[2] = Tolerability of ML291 in mice; type: in vivo
[3] = system: HN6; test: Proliferation, HN6; type: cell-based; details: HN-6, 24 hours, average of three experiments
Method: (§1) To determine whether ML291 could reduce the proliferation of malignant cells, a panel of OSCC (UMSCC23, A253, HN6, HN12, HN30, H460/T800) and ovarian cancer (RMG-1, TOV112D, A2780 and SKOV3) cell lines, were treated with increasing doses (0.15-20 μM) of ML291 for 24 hours (FIGS. 3A and 3B).

[4] = system: colorectal cell line DLD1(BAX−/−)(BAK−/−); test: ML291 exposure of DLD1(BAX−/−)(BAK−/−) versus wild-type; type: cell-based, human; details: versus wild-type controls
[5] = Plasma protein binding, mouse; type: in vitro ADME
Text: Plasma protein binding is a measure of a drug's efficiency to bind to the proteins within blood plasma. The less bound a drug is, the more efficiently it can traverse cell membranes or diffuse. Highly plasma protein bound drugs are confined to the vascular space, thereby having a relatively low volume of distribution. In contrast, drugs that remain largely unbound in plasma are generally available for distribution to other organs and tissues. ML291 was highly plasma protein bound to human plasma proteins (>99%), though it is somewhat less tightly bound to mouse plasma proteins (˜84%).

[6] = system: CHOP transcripts (apoptotic) compared to spliced XBP1 (adaptive); test: qRT-PCR transcription profile in OSCC cell lines UMSCC23, A253 and HN12; type: cell-based; details: four hours treatment
Text: While ML291 robustly and selectively activated the apoptotic (CHOP) arm of UPR in the engineered luciferase reporter CHO-K1 cells, while not activating reporter under the control of the adaptive arm (XBP1) promoters, direct confirmation of the selective activation of genes and pathways on the apoptotic UPR arm in a biologically relevant cell or cell line was needed. To determine whether or not ML291 could selectively activate the apoptotic (CHOP) arm of the UPR, relevant oral squamous cell carcinoma cell lines, UMSCC23, A253 and HN12, were treated with ML291 for four hours. The activation/induction of associated genes along the UPR sub-pathways were measured by quantitative real-time reverse-transcription PCR (qRT-PCR) analysis of cDNA pools generated from whole cell lysates. […] Furthermore, the simultaneous induction of the CHOP down stream target GADD34, but not the DNA excision and repair gene ERCC1 indicated ML291 was activating CHOP via the UPR and not DNA damage.

[7] = system: HN30; test: Proliferation, HN30; type: cell-based; details: 24 hours, average of three experiments
Method: as §1

[8] = system: panel of OSCC and ovarian cancer cell lines; test: Proliferation, panel of OSCC and ovarian cancer cell lines; type: cell-based; details: 24 hours, 0.15-20 μM; read-out: IC50 values in eight of the ten cell lines
Method: as §1

[9] = system: IRE1/XBP1 (adaptive) UPR sub-pathway; test: UPR XBP1 assay (CHO-XBP1-luciferase reporter cell line); type: cell-based
Method: A high-throughput screen of the NIH Molecular Libraries Small Molecule Repository (MLSMR) of >350,000 compounds was carried out using complementary cell-based reporter assays using stably transfected CHO-K1 cells that specifically identify activators of the PERK/eIF2α/CHOP (apoptotic), or the IRE1/XBP1 (adaptive) UPR sub-pathways.
The liquid samples were first confirmed at a single-point concentration of 10 μM in the […]. Of the liquid samples, 674 compounds were confirmed to have at least 32% activity at a 10 μM assay concentration. The confirmed compounds were further tested in dose response in the UPR-CHOP primary assay to obtain EC50 values. In addition, confirmed compounds were also dosed out in the CHO-XBP1-luciferase reporter cell line to identify compounds that were selective for the CHOP apoptotic over the adaptive XBP1 pathway.
The high throughput screening effort and subsequent validation produced two chemotypes, which were further explored by SAR analysis for potency, selectivity, the absence of reactive functionality, synthetic accessibility, physiochemical properties, and hit rate in unrelated PUBCHEM assays. SAR testing of re-constituted powders encompassed dose response testing of compounds in two assays: UPR-CHOP and UPR-XBP1 assays.

[10] = PAMPA permeability; type: in vitro ADME
Method: The PAMPA (Parallel Artificial Membrane Permeability Assay) assay was used as an in vitro model of passive, transcellular permeability. An artificial membrane immobilized on a filter was placed between a donor and acceptor compartment. At the start of the test, drug was introduced in the donor compartment. Following the permeation period, the concentration of drug in the donor and acceptor compartments was measured using UV spectroscopy.

For `O=C(Nc1ccc(S(=O)(=O)N2CCC(Cl)CC2)cc1)c1ccc([N+](=O)[O-])o1` [ML291, N-(4-((4-chloropiperidin-1-yl)sulfonyl)phenyl)-5-nitrofuran-2-carboxamide], the “solubility over its EC50” value ([1]; EC50 762 nM) was 11-13 fold, the solubility ([1]; aqueous buffer (pION's buffer), aqueous buffer, pH range of 5.2-7.4, read-out: solubility in aqueous buffers) was 8.7 µM to 9.7 µM and 3.6 µg/mL to 4 µg/mL and the “Aqueous Solubility in pION's buffer” value ([1]; pH 5.0) was 3.6 μg/mL and 8.7 μM. The “Aqueous Solubility in pION's buffer” value ([1]; pH 6.2) was 3.8 μg/mL and 9.2 μM, the “Aqueous Solubility in pION's buffer” value ([1]; pH 7.4) was 4.0 μg/mL and 9.7 μM and the “weight, physical appearance, disposition or activity versus controls” value ([2]; 10 mg/kg IP daily, preliminary) was “no differences in weight, physical appearance, disposition or activity”. The side effects ([2]; 10 mg/kg bi-weekly for four weeks) was “did not display any obvious side effects”, the IC50 [3] was greater than 20 µM and the “ability of BAX/BAK-deleted cells to withstand exposure” value [4] was “significantly more able to withstand ML291 exposure than wild-type controls”. For the same compound, the “bound to mouse plasma proteins” value [5] was roughly 84%, the fraction unbound at 1 µM ([5]; plasma, Mouse, 1 μM, read-out: Plasma Protein Binding (% Bound) (converted)) was 0.155 and the fraction unbound at 10 µM ([5]; plasma, Mouse, 10 μM, read-out: Plasma Protein Binding (% Bound) (converted)) was 0.157. The “selectivity of CHOP transcripts compared to spliced XBP1” value [6] was 5 fold, the IC50 [7] was 8.95 ± 1.06 µM and the IC50 [8] was 1.6 to 18.9 µM. It also gave an EC50 ([9]; Table 1, mean of replicates, AID602416, read-out: UPR XBP1 Assay Potency EC50) greater than 80 µM, an EC50 ([9]; Table 9, average of four runs, F12 HAMs, 10% hi-FBS, read-out: EC50 UPR XBP1 Assay) greater than 80 µM and an EC50 ([9]; read-out: XBP1 EC50) greater than 80 µM. The “PAMPA Permeability, Pe” value ([10]; Donor pH 5.0, Acceptor pH 7.4) was 291 ×10⁻⁶ cm/s, the “PAMPA Permeability, Pe” value ([10]; Donor pH 6.2, Acceptor pH 7.4) was 329 ×10⁻⁶ cm/s and the “PAMPA Permeability, Pe” value ([10]; Donor pH 7.4, Acceptor pH 7.4) was 245 ×10⁻⁶ cm/s. The “PAMPA permeability” value ([10]; donor pH 5.0, 6.2 and 7.4) was “good permeability”.
